Laboratory results reported in paper PMC5421785, “Citrullination only infrequently impacts peptide binding to HLA class II MHC” (PLoS ONE, 2017).
Square brackets hold non-standard residues; d marks the D form. Peptide text beside a SMILES is read from it. Cit = NC(=O)NCCC[C@H](N)C(=O)O

Columns and labels:
Test in all cases: HLA class II peptide binding, inhibition of radiolabeled peptide binding to purified MHC; on IC50 DRB1*01:01: competition with radiolabeled peptide (0.1–1 nM); on IC50 DRB1*04:01: competition with radiolabeled peptide (0.1–1 nM)
[1] = molecular target: DRB1*16:02 (Homo sapiens, UniProt P01903+P01911, A100R/F76Y/I96L/Q99D/V115G); conditions: SE-, competition with radiolabeled peptide, two-day incubation, three or more independent experiments
[2] = molecular target: T1, HLA-DRB1*01:01 (Homo sapiens, UniProt P01903+P01911, A100R/D57E/F55L/F60I/F76Y/I96L/L162R/M171V/P40L/Q125E/R42F/V115G/Y59C); conditions: read-out: IC50 DRB1*01:01; further: competition with radiolabeled peptide (0.1–1 nM)
T1 construct: EBV transformed homozygous cell lines were used as sources of MHC molecules; endogenous in cells; host or cells: EBV transformed homozygous cell lines

[3] = molecular target: DRB1*04:02 (Homo sapiens, UniProt P01903+P01911, A100E/A169T/F76Y/K127E/L162R/M171V/N62H/P40V/Q125Y/Q99D/R42H/S133A/S149N/S66Y/V209L/W38E); conditions: SE-, competition with radiolabeled peptide, two-day incubation, three or more independent experiments
[4] = molecular target: DRB1*12:01 (Homo sapiens, UniProt P01903+P01911, A100R/A169T/D57E/D86V/F55L/H45Y/K41T/L162R/M171V/P40S/Q125H/Q178H/Q39Y/Q99D/R42G/S66L/T262R/V114A/V67L/W38E/Y59H/Y61H/Y89S); conditions: SE-, competition with radiolabeled peptide, two-day incubation, three or more independent experiments
[5] = molecular target: T2, DRB1*15:01 (Homo sapiens, UniProt P01903+P01911); conditions: SE-, competition with radiolabeled peptide, two-day incubation, three or more independent experiments
T2 construct: EBV transformed homozygous cell lines were used as sources of MHC molecules; endogenous in cells; host or cells: EBV transformed homozygous cell lines

[6] = molecular target: DRB1*07:01 (Homo sapiens, UniProt P01903+P01911, A100R/A102G/A103Q/D57E/D86V/E43K/F76Y/K127E/L162R/M171V/P40G/Q125H/Q99D/R33Q/R42Y/R54Q/S133A/S66F/T210M/V115G/Y107V/Y59L/Y89S); conditions: Other DR, competition with radiolabeled peptide, two-day incubation, three or more independent experiments
[7] = molecular target: T3, DRB5*01:01 (Homo sapiens, UniProt P01903+Q30154); conditions: Other DR, competition with radiolabeled peptide, two-day incubation, three or more independent experiments
T3 construct: EBV transformed homozygous cell lines were used as sources of MHC molecules; endogenous in cells; host or cells: EBV transformed homozygous cell lines

[8] = molecular target: T4, HLA-DRB1*04:01 (Homo sapiens, UniProt P01903+P01911, A100K/A169T/F76Y/I96L/K127E/L162R/M171V/N62H/P40V/Q125Y/R42H/S133A/S149N/S66Y/V115G/V209L/W38E); conditions: read-out: IC50 DRB1*04:01; further: competition with radiolabeled peptide (0.1–1 nM)
T4 construct: EBV transformed homozygous cell lines were used as sources of MHC molecules; endogenous in cells; host or cells: EBV transformed homozygous cell lines

[9] = molecular target: DRB1*09:01 (Homo sapiens, UniProt P01903+P01911, A100R/A103E/D57H/D86V/F55Y/F60I/F76Y/I96F/K127E/L162R/M171V/P40D/Q125H/Q99R/R33Q/R42F/S133A/S66N/T210M/V115G/W38K/Y107V/Y59G/Y89S); conditions: Other DR, competition with radiolabeled peptide, two-day incubation, three or more independent experiments
[10] = molecular target: DRB1*10:01 (Homo sapiens, UniProt P01903+P01911, A100R/A169T/D57E/F55L/F60V/F69Y/F76Y/I96L/L162R/M171V/P40V/Q260P/Q39E/Q99R/R195Q/R42F/S149N/S66Y/T210M/V115G/V67A/W38E/Y59R/Y61H); conditions: SE+, competition with radiolabeled peptide, two-day incubation, three or more independent experiments
[11] = molecular target: DRB1*11:01 (Homo sapiens, UniProt P01903+P01911, A100R/A169T/A87E/I96F/K41T/L162R/M171V/P40S/Q125H/Q178H/Q39Y/Q99D/R42S/S66Y/T262R/V115G/W38E); conditions: SE-, competition with radiolabeled peptide, two-day incubation, three or more independent experiments
[12] = molecular target: T5, DPB1*04:01 (Homo sapiens, UniProt P04440+P20036); conditions: DP; purified MHC, competition with radiolabeled peptide, two-day incubation, three or more independent experiments
T5 construct: EBV transformed homozygous cell lines were used as sources of MHC molecules; endogenous in cells; host or cells: EBV transformed homozygous cell lines
T5 sequence (P04440 30-258): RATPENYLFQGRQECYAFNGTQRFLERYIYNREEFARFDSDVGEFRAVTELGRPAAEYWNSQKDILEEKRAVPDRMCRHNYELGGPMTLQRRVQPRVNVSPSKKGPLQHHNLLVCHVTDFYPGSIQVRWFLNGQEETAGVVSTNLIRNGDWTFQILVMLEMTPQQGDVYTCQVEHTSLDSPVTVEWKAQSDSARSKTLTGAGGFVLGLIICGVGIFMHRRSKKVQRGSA
T5 sequence (P20036 29-260 partner): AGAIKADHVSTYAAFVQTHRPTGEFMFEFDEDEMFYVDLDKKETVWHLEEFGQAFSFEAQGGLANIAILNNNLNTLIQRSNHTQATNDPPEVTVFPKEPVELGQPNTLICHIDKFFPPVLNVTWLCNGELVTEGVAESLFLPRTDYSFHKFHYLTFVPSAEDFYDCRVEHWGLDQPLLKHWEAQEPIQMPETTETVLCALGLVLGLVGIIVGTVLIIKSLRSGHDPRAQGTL

[13] = molecular target: DRB1*08:02 (Homo sapiens, UniProt P01903+P01911, A100R/A103L/A169T/F76Y/H45Y/I96F/K41T/L162R/M171V/P40S/Q125H/Q178H/Q39Y/Q99D/R218S/R42G/S66Y/V115G/W38E); conditions: Other DR, competition with radiolabeled peptide, two-day incubation, three or more independent experiments
[14] = molecular target: DRB1*03:01 (Homo sapiens, UniProt P01903+P01911, A100K/A102G/A103R/A169T/F55Y/I96L/K41T/L162R/M171V/P40S/Q125H/Q178H/Q39Y/R42S/S66N/T106N/T262R/W38E/Y61H); conditions: Other DR, competition with radiolabeled peptide, two-day incubation, three or more independent experiments
[15] = molecular target: DRB1*04:04 (Homo sapiens, UniProt P01903+P01911, A100R/A169T/F76Y/I96L/K127E/L162R/M171V/N62H/P40V/Q125Y/R42H/S133A/S149N/S66Y/V209L/W38E); conditions: SE+, competition with radiolabeled peptide, two-day incubation, three or more independent experiments
[16] = molecular target: T6, DRB3*01:01 (Homo sapiens, UniProt P01903+P79483); conditions: Other DR, competition with radiolabeled peptide, two-day incubation, three or more independent experiments
T6 construct: EBV transformed homozygous cell lines were used as sources of MHC molecules; endogenous in cells; host or cells: EBV transformed homozygous cell lines

[17] = molecular target: DRB1*04:05 (Homo sapiens, UniProt P01903+P01911, A100R/A169T/D86S/F76Y/I96L/K127E/L162R/M171V/N62H/P40V/Q125Y/R42H/S133A/S149N/S66Y/V115G/V209L/W38E); conditions: SE+, competition with radiolabeled peptide, two-day incubation, three or more independent experiments
[18] = molecular target: DRB1*13:02 (Homo sapiens, UniProt P01903+P01911, A100E/A169T/K41T/L162R/M171V/P40S/Q125H/Q178H/Q39Y/Q99D/R42S/S66N/T262R/V115G/W38E/Y61H); conditions: SE-, competition with radiolabeled peptide, two-day incubation, three or more independent experiments
[19] = molecular target: T7, DRB4*01:01 (Homo sapiens, UniProt P01903+P13762, G164S); conditions: Other DR, competition with radiolabeled peptide, two-day incubation, three or more independent experiments
T7 construct: EBV transformed homozygous cell lines were used as sources of MHC molecules; endogenous in cells; host or cells: EBV transformed homozygous cell lines

[20] = molecular target: DRB3*02:02 (Homo sapiens, UniProt P01903+P79483, A212P/D57E/F66Y/L67A/R103Q/R218S/R40L/S89Y/T80R/V86D/Y55F/Y59H); conditions: Other DR, competition with radiolabeled peptide, two-day incubation, three or more independent experiments
[21] = molecular target: DQB1*03:01 (Homo sapiens, UniProt P01909+P01920); conditions: DQ, competition with radiolabeled peptide, two-day incubation, three or more independent experiments
Chain of DQB1*03:01 (P01920 33-261, other chains not shown): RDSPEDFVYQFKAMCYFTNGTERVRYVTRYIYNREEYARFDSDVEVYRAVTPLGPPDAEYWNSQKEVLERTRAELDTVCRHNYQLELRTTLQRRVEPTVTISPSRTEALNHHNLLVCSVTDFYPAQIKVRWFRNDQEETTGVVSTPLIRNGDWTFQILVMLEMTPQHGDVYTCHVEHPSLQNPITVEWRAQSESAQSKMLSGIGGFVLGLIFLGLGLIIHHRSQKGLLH

Row | IC50 [1] | IC50 [2] | IC50 [3] | IC50 [4] | IC50 [5] | IC50 [6] | IC50 [7] | IC50 [8] | IC50 [9] | IC50 [10] | IC50 [11] | IC50 [12] | IC50 [13] | IC50 [14] | IC50 [15] | IC50 [16] | IC50 [17] | IC50 [18] | IC50 [19] | IC50 [20] | Compound | other results
1 | 0.118 µM | 0.0095 µM | 0.014 µM | 2.22 µM | 0.0054 µM | 7.31 µM | 1.36 µM | 0.0018 µM | 0.353 µM | 0.035 µM | 8.92 µM | > 30 µM | 0.275 µM | 25.9 µM | 0.009 µM | > 30 µM | 0.054 µM | 15 µM | 0.004 µM | > 30 µM | CC(C)C[C@H](NC(=O)[C@H](CCCNC(=N)N)NC(=O)[C@@H](NC(=O)[C@H](C)NC(=O)[C@@H](N)CO)C(C)C)C(=O)N[C@@H](CCCNC(N)=O)C(=O)N[C@@H](CO)C(=O)N[C@@H](CO)C(=O)N[C@H](C(=O)N1CCC[C@H]1C(=O)NCC(=O)N[C@H](C(=O)N[C@@H](CCCNC(=N)N)C(=O)O)C(C)C)C(C)C [Vimentin 66–78 Cit] (H-SAVRL[Cit]SSVPGVR-OH) | IC50 [21]: 2.01 µM
2 | 15.3 µM | 15.7 µM | > 30 µM | 9.38 µM | > 30 µM | > 30 µM | 0.0092 µM | 12.9 µM | > 30 µM | 8.48 µM | > 30 µM | > 30 µM | 35.7 µM | > 30 µM | 2.32 µM | > 30 µM | 11.3 µM | > 30 µM | 12.7 µM | > 30 µM | CC[C@H](C)[C@H](NC(=O)[C@H](CCCNC(N)=O)NC(=O)[C@H](CC(N)=O)NC(=O)[C@@H](NC(=O)[C@H](Cc1ccccc1)NC(=O)[C@H](CC(=O)O)NC(=O)[C@H](CCC(N)=O)NC(=O)[C@@H](N)CC(N)=O)[C@@H](C)O)C(=O)N[C@@H](CC(N)=O)C(=O)N[C@@H](CCCCN)C(=O)N[C@@H](CC(C)C)C(=O)N[C@@H](CCCCN)C(=O)N[C@@H](CC(N)=O)C(=O)N[C@@H](CO)C(=O)O [Fibrinogen 78–91 Cit] (H-NQDFTN[Cit]INKLKNS-OH) | IC50 [21]: > 30 µM
3 | 22.8 µM | 3.86 µM | 4.26 µM | 11 µM | 7.6 µM | 8.47 µM | 0.74 µM | 0.827 µM | 28.5 µM | 2.42 µM | 29.7 µM | 16.2 µM | 17 µM | 11.1 µM | 0.854 µM | 18.9 µM | 0.047 µM | 0.552 µM | 2.34 µM | 0.051 µM | CC(C)C[C@H](NC(=O)[C@H](CC(C)C)NC(=O)[C@@H](NC(=O)[C@@H](N)C(C)C)C(C)C)C(=O)N[C@H](C(=O)N[C@@H](C)C(=O)N[C@H](C(=O)N[C@@H](CCC(=O)O)C(=O)NCC(=O)N[C@@H](CCCNC(N)=O)C(=O)N[C@H](C(=O)N[C@@H](CCCNC(=N)N)C(=O)N[C@H](C(=O)N[C@@H](CC(N)=O)C(=O)N[C@@H](CO)C(=O)N[C@@H](C)C(=O)N[C@@H](Cc1ccc(O)cc1)C(=O)N[C@@H](CCC(N)=O)C(=O)N[C@@H](CC(=O)O)C(=O)N[C@@H](CCCCN)C(=O)O)C(C)C)C(C)C)[C@@H](C)O)C(C)C [Aggrecan 84–103 Cit] (H-VVLLVATEG[Cit]VRVNSAYQDK-OH) | IC50 [21]: 0.382 µM
